This is an account of results in patent publication US20260327204A1, “DEGRADERS OF CYCLIN-DEPENDENT KINASE 12/13, COMPOSITIONS, AND USES THEREOF” (ZHEJIANG UNIVERSITY, priority 2023, published 2026).

In one test the target is CDK12 (Homo sapiens, UniProt Q9NYV4). Briefly: Western blot degradation of CDK12 (Example 2). The note with it: DC50 classes, cell line not given; for DC50: read-out: CDK12 degradation Activity. The arrangement: degradation of CDK12/13 protein in leukemia cells KASUMI-1, MV4-11, and Jurkat; endogenous in cells. Format: cell-based. As to the method: (§1) Western blot was used to determine the degradation of CDK12/13 protein in leukemia cells KASUMI-1, MV4-11, and Jurkat. The two compounds with the best degradation effects were further validated for their ability to degrade CDK12/13 protein in breast cancer cells MDA-MB-231 using a concentration gradient.
(§2) • Cell lines: KASUMI-1, MV4-11, Jurkat, or MDA-MB-231 • Culture medium: DMEM/RIPM-1640+10% Hyclone serum • Compound dissolution method: Compounds were dissolved in DMSO to prepare a 50 mM stock solution, and then diluted to the corresponding concentrations.
(§3) (1) In vitro cell culture: The selected cells were cultured in a 37 °C constant temperature incubator with 5% CO2. Once the cell density reached 70-90%, they were passaged for subsequent experiments.
(§4) (2) Cell seeding: Cells were digested, and the cell suspension was transferred to a 1.5 mL Eppendorf tube. After centrifugation at 1,000 rpm for 5 min, the cells were resuspended in 2 mL of culture medium and counted. The cell suspension was seeded in a 24-well plate at a density of 200,000 cells per well and allowed to adhere for 8-12 h.
(§5) (3) Compound treatment: The 50 mM compound stock solution was diluted with cell culture medium to a final concentration of 0.01 μM-3 μM. Cells were incubated in a 37 °C incubator with 5% CO2 for 3 h-48 h. The DMSO group served as the negative control.
(§6) At the end of the treatment time, the cells were collected and washed once with PBS. An appropriate volume of 4% SDS was added to lyse the cells, and the mixture was sonicated until no longer viscous. After centrifugation at 12,000 rpm at room temperature for 30 min, the supernatant was transferred to a new EP tube for protein quantification.
(§7) The exposure results were quantitatively analyzed using Image J software. First, the grayscale values of the bands were calculated using Image J. Then, the grayscale value of the target protein was divided by the grayscale value of the internal reference protein for normalization. The calculation formula is: […]
(§8) Where A is the grayscale value and D is the degradation rate.
(§9) In the figures, CDK12 and CDK13 are the target proteins under study, and β-Actin and GAPDH are the internal reference proteins. Internal reference proteins are used to indicate the total protein amount in each experimental group for quantitative analysis.
For orientation: Immunoblotting shows a protein as a band on a membrane.

Another test has as its target CDK13 (Homo sapiens, UniProt Q14004). Briefly: Western blot degradation of CDK13 (Example 2). Format: cell-based. Further details: degradation of CDK12/13 protein in leukemia cells KASUMI-1, MV4-11, and Jurkat; endogenous in cells. To be noted: DC50 classes, cell line not given; for DC50: read-out: CDK13 degradation Activity. On the procedure:
as §1, §2, §3, §4, §5, §6, §7, §8, §9

Chain of CDK12 (Q9NYV4 whole entry): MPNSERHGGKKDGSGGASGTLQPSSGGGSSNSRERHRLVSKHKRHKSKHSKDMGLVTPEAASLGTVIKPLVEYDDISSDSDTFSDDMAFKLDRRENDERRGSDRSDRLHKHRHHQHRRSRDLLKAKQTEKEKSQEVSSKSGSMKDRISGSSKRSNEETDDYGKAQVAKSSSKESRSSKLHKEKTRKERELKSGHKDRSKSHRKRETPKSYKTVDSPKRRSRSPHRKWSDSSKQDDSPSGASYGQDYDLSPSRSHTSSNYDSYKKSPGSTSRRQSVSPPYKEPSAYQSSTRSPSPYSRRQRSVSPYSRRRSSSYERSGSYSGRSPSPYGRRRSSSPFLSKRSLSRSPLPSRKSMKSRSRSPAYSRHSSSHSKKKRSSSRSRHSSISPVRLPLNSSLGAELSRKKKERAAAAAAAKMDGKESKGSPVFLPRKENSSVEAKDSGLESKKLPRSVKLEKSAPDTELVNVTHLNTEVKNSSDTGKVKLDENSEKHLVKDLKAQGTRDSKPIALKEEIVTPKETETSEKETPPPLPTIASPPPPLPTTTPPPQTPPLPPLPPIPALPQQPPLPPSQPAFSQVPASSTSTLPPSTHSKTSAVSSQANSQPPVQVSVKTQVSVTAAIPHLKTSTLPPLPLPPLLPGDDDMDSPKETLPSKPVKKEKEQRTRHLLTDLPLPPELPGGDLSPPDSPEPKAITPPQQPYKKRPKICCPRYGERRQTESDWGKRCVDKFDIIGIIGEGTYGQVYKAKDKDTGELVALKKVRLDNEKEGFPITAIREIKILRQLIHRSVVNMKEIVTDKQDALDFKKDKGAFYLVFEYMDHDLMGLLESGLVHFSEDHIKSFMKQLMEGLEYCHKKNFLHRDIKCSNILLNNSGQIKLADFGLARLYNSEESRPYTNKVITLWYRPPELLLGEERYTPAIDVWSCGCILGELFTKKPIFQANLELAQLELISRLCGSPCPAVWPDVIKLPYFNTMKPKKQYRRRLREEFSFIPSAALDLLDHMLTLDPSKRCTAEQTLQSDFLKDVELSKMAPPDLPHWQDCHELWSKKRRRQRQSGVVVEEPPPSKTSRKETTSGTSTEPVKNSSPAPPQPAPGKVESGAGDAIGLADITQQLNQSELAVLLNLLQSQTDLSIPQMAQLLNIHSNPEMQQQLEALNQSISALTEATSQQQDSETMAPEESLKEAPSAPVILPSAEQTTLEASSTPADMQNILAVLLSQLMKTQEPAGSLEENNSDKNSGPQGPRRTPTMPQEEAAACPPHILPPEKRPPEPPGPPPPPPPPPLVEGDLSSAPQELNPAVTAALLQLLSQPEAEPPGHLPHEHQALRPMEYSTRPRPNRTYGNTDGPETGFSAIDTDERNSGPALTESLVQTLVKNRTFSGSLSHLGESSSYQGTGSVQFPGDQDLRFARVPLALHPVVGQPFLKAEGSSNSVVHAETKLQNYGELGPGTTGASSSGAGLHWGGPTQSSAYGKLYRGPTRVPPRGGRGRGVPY
Chain of CDK12 (O75909 whole entry partner): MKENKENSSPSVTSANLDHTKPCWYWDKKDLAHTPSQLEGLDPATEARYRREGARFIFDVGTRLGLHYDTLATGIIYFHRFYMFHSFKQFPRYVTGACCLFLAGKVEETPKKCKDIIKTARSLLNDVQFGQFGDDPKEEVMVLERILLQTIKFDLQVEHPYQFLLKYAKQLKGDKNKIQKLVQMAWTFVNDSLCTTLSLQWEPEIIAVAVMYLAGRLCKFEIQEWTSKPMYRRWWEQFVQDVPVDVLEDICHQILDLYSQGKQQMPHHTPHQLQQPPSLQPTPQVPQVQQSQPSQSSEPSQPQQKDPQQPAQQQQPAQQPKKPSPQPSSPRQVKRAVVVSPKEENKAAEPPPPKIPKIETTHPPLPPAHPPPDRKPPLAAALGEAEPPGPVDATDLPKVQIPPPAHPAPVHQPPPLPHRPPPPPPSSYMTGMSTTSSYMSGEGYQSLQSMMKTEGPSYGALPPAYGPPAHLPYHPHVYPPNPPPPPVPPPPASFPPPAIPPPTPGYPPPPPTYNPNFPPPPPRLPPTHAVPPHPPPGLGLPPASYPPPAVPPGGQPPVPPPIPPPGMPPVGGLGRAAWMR
Chain of CDK13 (Q14004 whole entry): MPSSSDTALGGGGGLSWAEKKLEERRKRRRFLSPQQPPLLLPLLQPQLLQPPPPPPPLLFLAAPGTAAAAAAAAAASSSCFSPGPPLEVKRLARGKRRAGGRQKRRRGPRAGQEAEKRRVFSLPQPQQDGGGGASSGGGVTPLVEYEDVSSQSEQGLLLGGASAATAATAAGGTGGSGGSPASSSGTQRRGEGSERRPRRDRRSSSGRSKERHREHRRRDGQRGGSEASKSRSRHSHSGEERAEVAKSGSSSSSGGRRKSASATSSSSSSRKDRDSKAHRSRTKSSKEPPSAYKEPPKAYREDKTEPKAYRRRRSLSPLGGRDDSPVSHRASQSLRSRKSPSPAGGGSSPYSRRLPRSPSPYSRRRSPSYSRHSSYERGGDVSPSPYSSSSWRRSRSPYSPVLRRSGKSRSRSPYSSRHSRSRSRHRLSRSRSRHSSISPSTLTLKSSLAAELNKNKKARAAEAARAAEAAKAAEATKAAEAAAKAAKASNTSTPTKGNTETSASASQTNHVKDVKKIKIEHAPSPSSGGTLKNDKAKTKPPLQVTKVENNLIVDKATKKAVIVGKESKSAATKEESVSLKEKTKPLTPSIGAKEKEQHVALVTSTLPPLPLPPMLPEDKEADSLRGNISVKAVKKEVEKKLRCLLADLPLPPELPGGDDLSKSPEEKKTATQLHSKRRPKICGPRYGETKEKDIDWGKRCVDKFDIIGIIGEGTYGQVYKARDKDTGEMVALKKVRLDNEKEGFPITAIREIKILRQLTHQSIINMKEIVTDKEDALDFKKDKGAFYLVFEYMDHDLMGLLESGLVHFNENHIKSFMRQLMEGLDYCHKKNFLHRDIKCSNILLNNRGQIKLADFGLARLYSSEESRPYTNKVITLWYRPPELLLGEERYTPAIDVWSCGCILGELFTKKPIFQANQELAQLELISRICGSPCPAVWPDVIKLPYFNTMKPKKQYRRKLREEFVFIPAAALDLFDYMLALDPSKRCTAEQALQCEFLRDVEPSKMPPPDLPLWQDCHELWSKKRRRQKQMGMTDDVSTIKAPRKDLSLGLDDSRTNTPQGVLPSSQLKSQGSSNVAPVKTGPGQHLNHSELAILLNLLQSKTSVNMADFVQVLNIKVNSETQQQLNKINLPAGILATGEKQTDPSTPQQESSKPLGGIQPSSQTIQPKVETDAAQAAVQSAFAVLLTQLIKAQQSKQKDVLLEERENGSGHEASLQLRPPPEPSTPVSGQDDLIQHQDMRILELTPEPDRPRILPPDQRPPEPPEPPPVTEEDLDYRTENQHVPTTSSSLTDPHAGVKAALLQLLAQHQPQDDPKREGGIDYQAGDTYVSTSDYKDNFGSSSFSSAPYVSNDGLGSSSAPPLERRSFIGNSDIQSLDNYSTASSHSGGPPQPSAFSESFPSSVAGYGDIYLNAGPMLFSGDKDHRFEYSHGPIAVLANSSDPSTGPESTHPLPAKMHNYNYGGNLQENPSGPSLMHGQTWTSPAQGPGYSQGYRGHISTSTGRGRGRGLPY
Chain of CDK13 (O75909 whole entry partner): as the sequence (O75909 whole entry partner) above

On to `Cc1ncsc1-c1ccc([C@H](C)NC(=O)[C@@H]2C[C@@H](O)CN2C(=O)[C@@H](NC(=O)CC2CN(c3ccc(-c4ccc(N(C(=O)NCc5ccccc5)[C@H]5CC[C@H](Nc6ccc(C#N)cn6)CC5)cc4)cn3)C2)C(C)(C)C)cc1` [Formula 29], for which the DC50 at CDK12 lay within 3 to 10 µM. The “CDK13 degradation Activity” value on CDK13 is reported as “−”.
For the compound `Cc1ncsc1-c1ccc([C@H](C)NC(=O)[C@@H]2C[C@@H](O)CN2C(=O)[C@@H](NC(=O)N2CCN(c3ccc(N(C(=O)NCc4ccccc4)[C@H]4CC[C@H](Nc5ncc6ccccc6n5)CC4)cc3)CC2)C(C)(C)C)cc1` [Formula 53], the results for the DC50 at CDK12 and on CDK13 were 3 to 10 µM and 1 to 3 µM, respectively.
For `Cc1ncsc1-c1ccc([C@H](C)NC(=O)[C@@H]2C[C@@H](O)CN2C(=O)[C@@H](NC(=O)C2CCN(c3ccc(-c4ccc(N(C(=O)NCc5ccccc5)[C@H]5CC[C@H](Nc6ccc(C#N)cn6)CC5)cc4)cn3)CC2)C(C)(C)C)cc1` [Formula 17], in that order: 1 to 3 µM and 0.5 to 1 µM.
For `Cc1ncsc1-c1ccc([C@H](C)NC(=O)[C@@H]2C[C@@H](O)CN2C(=O)[C@@H](NC(=O)CN2CCN(c3ccc(-c4ccc(N(C(=O)NCc5ccccc5)[C@H]5CC[C@H](Nc6ccc(C#N)cn6)CC5)cc4)cn3)CC2)C(C)(C)C)cc1` (racemic) [Formula 73] the same measures were less than 0.1 µM and less than 0.1 µM.
With `N#Cc1ccc(N[C@H]2CC[C@H](N(C(=O)NCc3ccccc3)c3ccc(-c4ccc(=O)n(CCOCCOCCOCCNc5cccc6c5C(=O)N(C5CCC(=O)NC5=O)C6=O)c4)cc3)CC2)nc1` (some centres unmarked) [Formula 48], at CDK12, the DC50 fell in the range of 3 to 10 µM. Moreover, the “CDK13 degradation Activity” value on CDK13 is listed as “−”.
As for `Cc1ncsc1-c1ccc([C@H](C)NC(=O)[C@@H]2C[C@@H](O)CN2C(=O)[C@@H](NC(=O)C2CCN(C(=O)C3CCN(c4ccc(-c5ccc(N(C(=O)NCc6ccccc6)[C@H]6CC[C@H](Nc7ccc(C#N)cn7)CC6)cc5)cn4)CC3)CC2)C(C)(C)C)cc1` [Formula 21], the DC50 on CDK12 and on CDK13 was 1 to 3 µM each time.
In the case of `N#Cc1ccc(N[C@H]2CC[C@H](N(C(=O)NCc3ccccc3)c3ccc(-c4ccc(OCCOCCOCCOCCOCCNc5cccc6c5C(=O)N(C5CCC(=O)NC5=O)C6=O)nc4)cc3)CC2)nc1` (some centres unmarked) [Formula 35], the DC50 on CDK12 was in the range of 1 to 3 µM; at CDK13, 3 to 10 µM.
For `Cc1ncsc1-c1ccc([C@H](C)NC(=O)[C@@H]2C[C@@H](O)CN2C(=O)[C@@H](NC(=O)CN2CCN(c3ncc(-c4ccc(N(C(=O)NCc5ccccc5)[C@H]5CC[C@H](Nc6ccc(C#N)cn6)CC5)cc4)cn3)CC2)C(C)(C)C)cc1` [Formula 80], in that order: less than 0.1 µM and less than 0.1 µM.
For `N#Cc1ccc(N[C@H]2CC[C@H](N(C(=O)NCc3ccccc3)c3ccc(N4CCN(CCOCCOCCOCCOCCNc5cccc6c5C(=O)N(C5CCC(=O)NC5=O)C6=O)CC4)cc3)CC2)nc1` (some centres unmarked) [Formula 41] the same measures were 1 to 3 µM and 1 to 3 µM.
For `Cc1ncsc1-c1ccc([C@H](C)NC(=O)[C@@H]2C[C@@H](O)CN2C(=O)[C@@H](NC(=O)CN2CCC(C#Cc3ccc(N(C(=O)NCc4ccccc4)[C@H]4CC[C@H](Nc5ccc(C#N)cn5)CC4)cc3)CC2)C(C)(C)C)cc1` [Formula 25] the same measures were 3 to 10 µM and 3 to 10 µM.
Consider `Cc1ncsc1-c1ccc([C@H](C)NC(=O)[C@@H]2C[C@@H](O)CN2C(=O)[C@@H](NC(=O)CC#Cc2ccc(-c3ccc(N(C(=O)NCc4ccccc4)[C@H]4CC[C@H](Nc5ccc(C#N)cn5)CC4)cc3)cn2)C(C)(C)C)cc1` [Formula 15], for which the “CDK12 degradation Activity” value at CDK12 is listed as “−”. The “CDK13 degradation Activity” value on CDK13 is listed as “−”.
Take `Cc1ncsc1-c1ccc([C@H](C)NC(=O)[C@@H]2C[C@@H](O)CN2C(=O)[C@@H](NC(=O)C2CCN(C(=O)C3CCN(c4ccc(N(C(=O)NCc5ccccc5)[C@H]5CC[C@H](Nc6ccc(C#N)cn6)CC5)cc4)CC3)CC2)C(C)(C)C)cc1` [Formula 22]: the “CDK12 degradation Activity” value on CDK12 is reported as “−”. Besides, the “CDK13 degradation Activity” value at CDK13 is given as “−”.
In the case of `Cc1ncsc1-c1ccc([C@H](C)NC(=O)[C@@H]2C[C@@H](O)CN2C(=O)[C@@H](NC(=O)CN2CCN(c3ncc(-c4ccc(N(C(=O)NCc5ccccc5)[C@H]5CC[C@H](Nc6ccc(C#N)cn6)CC5)cc4)cn3)CC2)C(C)(C)C)cc1` (racemic) [Formula 81], the DC50 at CDK12 and at CDK13 was less than 0.1 µM in each case.
In the case of `Cc1ncsc1-c1ccc([C@H](C)NC(=O)[C@@H]2C[C@@H](O)CN2C(=O)[C@@H](NC(=O)CC#CCOc2ccc(-c3ccc(N(C(=O)NCc4ccccc4)[C@H]4CC[C@H](Nc5ccc(C#N)cn5)CC4)cc3)cn2)C(C)(C)C)cc1` [Formula 16], the DC50 on CDK12 and on CDK13 was 3 to 10 µM throughout.
On to `Cc1ncsc1-c1ccc([C@H](C)NC(=O)[C@@H]2C[C@@H](O)CN2C(=O)[C@@H](NC(=O)COCCOCCOCCn2cc(-c3ccc(N(C(=O)NCc4ccccc4)[C@H]4CC[C@H](Nc5ccc(C#N)cn5)CC4)cc3)ccc2=O)C(C)(C)C)cc1` [Formula 58], for which the “CDK12 degradation Activity” value at CDK12 is “−”. The “CDK13 degradation Activity” value at CDK13 was “−”.
`Cc1ncsc1-c1ccc([C@H](C)NC(=O)[C@@H]2C[C@@H](O)CN2C(=O)[C@@H](NC(=O)COCCn2cc(-c3ccc(N(C(=O)NCc4ccccc4)[C@H]4CC[C@H](Nc5ccc(C#N)cn5)CC4)cc3)ccc2=O)C(C)(C)C)cc1` [Formula 56]: on CDK12, the “CDK12 degradation Activity” value is listed as “−”. Further, on CDK13, the “CDK13 degradation Activity” value is “−”.
As for `Cc1ncsc1-c1ccc([C@H](C)NC(=O)[C@@H]2C[C@@H](O)CN2C(=O)[C@@H](NC(=O)N2CCC3(CC2)CCN(c2ccc(N(C(=O)NCc4ccccc4)[C@H]4CC[C@H](Nc5ccc(C#N)cn5)CC4)cn2)CC3)C(C)(C)C)cc1` [Formula 52], the DC50 at CDK12 was 3 to 10 µM. For the same compound, the “CDK13 degradation Activity” value at CDK13 is on record as “−”.
Take `N#Cc1ccc(N[C@H]2CC[C@H](N(C(=O)NCc3ccccc3)c3ccc(-c4ccc(=O)n(CCOCCNc5cccc6c5C(=O)N(C5CCC(=O)NC5=O)C6=O)c4)cc3)CC2)nc1` (some centres unmarked) [Formula 46]: the results for the DC50 at CDK12 and at CDK13 were 1 to 3 µM and 0.5 to 1 µM, respectively.
Consider `Cc1ncsc1-c1ccc([C@H](C)NC(=O)[C@@H]2C[C@@H](O)CN2C(=O)[C@@H](NC(=O)CN2CCN(c3ccc(-c4ccc5c(c4)CCCN(Cc4ccccc4)C(=O)N5[C@H]4CC[C@H](Nc5ccc(C#N)cn5)CC4)cn3)CC2)C(C)(C)C)cc1` [Formula 70], for which the DC50 on CDK12 and at CDK13 was less than 0.1 µM each time.
Turning to `Cc1ncsc1-c1ccc([C@H](C)NC(=O)[C@@H]2C[C@@H](O)CN2C(=O)[C@@H](NC(=O)C2CC3(CC(Nc4ccc(N(C(=O)NCc5ccccc5)[C@H]5CC[C@H](Nc6ccc(C#N)cn6)CC5)cc4)C3)C2)C(C)(C)C)cc1` (some centres unmarked) [Formula 27], the DC50 on CDK12 was in the range of 3 to 10 µM. For the same compound, the “CDK13 degradation Activity” value at CDK13 was “−”.
`Cc1ncsc1-c1ccc([C@H](C)NC(=O)[C@@H]2C[C@@H](O)CN2C(=O)[C@@H](NC(=O)CN2CCC(n3cc(-c4ccc(N(C(=O)NCc5ccccc5)[C@H]5CC[C@H](Nc6ccc(C#N)cn6)CC5)cc4)cn3)CC2)C(C)(C)C)cc1` [Formula 31]: the DC50 on CDK12 lay in the range of 1 to 3 µM; at CDK13 it was 3 to 10 µM.
For `N#Cc1ccc(N[C@H]2CC[C@H](N(C(=O)NCc3ccccc3)c3ccc(-c4ccc(=O)n(CCOCCOCCOCCOCCNc5cccc6c5C(=O)N(C5CCC(=O)NC5=O)C6=O)c4)cc3)CC2)nc1` (some centres unmarked) [Formula 49], in that order: 0.5 to 1 µM and 1 to 3 µM.
As for `N#Cc1ccc(N[C@H]2CC[C@H](N(C(=O)NCc3ccccc3)c3ccc(-c4ccc(OCCNc5cccc6c5C(=O)N(C5CCC(=O)NC5=O)C6=O)nc4)cc3)CC2)nc1` (some centres unmarked) [Formula 37], the DC50 on CDK12 lay within 1 to 3 µM; on CDK13 it was 0.5 to 1 µM.
As for `N#Cc1ccc(N[C@H]2CC[C@H](N(C(=O)NCc3ccccc3)c3ccc(-c4ccc(OCCOCCOCCOCCOCCOCCNc5cccc6c5C(=O)N(C5CCC(=O)NC5=O)C6=O)nc4)cc3)CC2)nc1` (some centres unmarked) [Formula 36], the “CDK12 degradation Activity” value on CDK12 is “−”. Further, at CDK13, the “CDK13 degradation Activity” value was “−”.
As for `Cc1ncsc1-c1ccc([C@H](C)NC(=O)[C@@H]2C[C@@H](O)CN2C(=O)[C@@H](NC(=O)CN2CCC(Oc3ccc(-c4ccc(N(C(=O)NCc5ccccc5)[C@H]5CC[C@H](Nc6ccc(C#N)cn6)CC5)cc4)cn3)CC2)C(C)(C)C)cc1` [Formula 11], the DC50 on CDK12 lay in the range of 0.5 to 1 µM; on CDK13 it was 0.1 to 0.5 µM.
